Assay results published in patent US20200360531A1, “ANTIBODY DRUG CONJUGATES (ADCS) WITH NAMPT INHIBITORS” (Bayer Aktiengesellschaft, priority 2018, published 2020).
“And” between values parts separate entries of the source, which are not always exact repeats. Equal values may be shown once. Read-outs that look alike come from different tables or passages of the source.

Experiments:
A549 C4.4a B4 = assay: Cell proliferation assay, Cell Titer Glo (CTG) method, A549 C4.4a B4; format: cell-based, human
Procedure: (§1) Cell Proliferation Assay for Nampt-ADCs and Nampt-SMOLs
(§2) Cell Titer Glo (CTG) Method
(§3) To this end, 75 μL per well CTG solution (Promega, catalog #G755B and G756B) was added to cells in sister plates, incubated for 10 min, and luminescence was measured on a VICTOR V instrument (Perkin Elmer). After incubation for either 72 or 96 hrs (Table 1) in the presence of test compounds, 100 μl per well CTG solution was added to all test wells, incubated for 10 min and luminescence was measured on a VICTOR V instrument. […] The DRC software is a Biobook Spreadsheet that was developed by Bayer AG and Bayer Business Services on the IDBS E-Workbook Suite platform (IDBS: ID Business Solutions Ltd., Guildford, UK).

human NAMPT = target: T1, human NAMPT (Homo sapiens, UniProt P43490); assay: NAMPT biochemical assay (hNAMPT IC50), cascade assay with NMNAT1 and NAD/NADH-Glo detection; details: Table 2; replicate values on separate lines
T1 construct: N-terminally His6-tagged recombinant full length human NAMPT; His6 (N); made in house; host or cells: E. coli
Excerpt: NAMPT Biochemical Assay (hNAMPT IC50)
Nicotinamide phosphoribosyltransferase (NAMPT) inhibitory activity of compounds of the present invention was quantified employing a cascade assay as described in the following paragraphs. The assay couples the conversion of nicotinamide (NAM) to nicotinamide mononucleotide (NMN) by NAMPT with the conversion of NMN to […] adenine dinucleotide (NAD^+) by nicotinamide mononucleotide adenylyltransferase 1 (NMNAT1) and the subsequent quantification of the generated NAD^+ by a commercial detection kit (NAD/NADH-Glo™ Assay from Promega, #G9072).
N-terminally His6-tagged recombinant full length human NAMPT and N-terminally His6-tagged recombinant full length human NMNAT1, both expressed in E. coli and purified via Ni-NTA-affinity chromatography and consecutive size exclusion chromatography, were used as enzymes.
For the assay 50 nl of a 100 fold concentrated solution of the test compound in DMSO was pipetted into a white low volume 384 well microtiter plate (Greiner Bio-One, Frickenhausen, Germany), 2.5 μl of a solution of NAMPT in aqueous NMNAT1-containing assay buffer [50 mM Tris/HCl pH 7.5, 12 mM MgCl2, 0.6 mM adenosine-tri-phosphate (ATP), 1 nM NMNAT1, 0.02% (w/v) bovine serum albumin (Sigma-Aldrich #P7906), 0.001% (v/v) Tween-20 (Sigma-Aldrich #P7949)] were added and the mixture was incubated for 15 min at 22° C. to allow pre-binding of the test compounds to the enzyme before the start of the enzyme reaction. Then the reaction was started by the addition of 2.5 μl of a solution of NAM (300 nM=>final conc. in the 5 μl assay volume is 150 nM, Sigma-Aldrich #^47865) and 5-phosphorylribose-1-pyrophosphate pentasodium salt (PRPP, 1.2 μM=>final conc. in the 5 μl assay volume is 0.6 μM, Sigma-Aldrich P8296) in assay buffer and the resulting mixture was incubated for a reaction time of 20 min at 22° C. The concentration of NAMPT was adjusted depending of the activity of the enzyme lot and was chosen appropriate to have the assay in the linear range, typical final concentration in the 5 μl assay volume was 0.16 nM.
The resulting mixture was incubated 2 h at 22° C. to allow a steady-state of the detection system. Subsequently the generated luminescence was measured in a suitable luminescence reader, e.g. a Viewlux™ (Perkin-Elmer), and taken as a measure for the generated NAD^+.

U251 MG = assay: Cell proliferation assay, Cell Titer Glo (CTG) method, U251 MG; format: cell-based
Procedure: as §1, §2, §3

THP-1 = assay: Cell proliferation assay, Cell Titer Glo (CTG) method, THP-1; format: cell-based, human; details: 72 h
Procedure: as §1, §2, §3

MDA-MB-453 = assay: Cell proliferation assay, Cell Titer Glo (CTG) method, MDA-MB-453; format: cell-based
Procedure: as §1, §2, §3

[1] = Homo sapiens, A549, 72 h, Table 2, read-out: A549 C4.4a B4 72 h IC50
[2] = Homo sapiens, U-251, 72 h, Table 2
[3] = Table 2, 72 h, read-out: A549 C4.4a B4 72 h IC50
[4] = Homo sapiens, MDA-MB-453, 72 h, Table 2, read-out: MDA-MB-453 72 h IC50
[5] = Table 3 (ADCs), 72 h, read-out: A549 C4.4a 72 h IC^50
[6] = Table 3 (ADCs), DSMZ cells, 72 h, read-out: MDA-MB-453 DSMZ 72 h IC^50

T1 sequence (P43490 whole entry): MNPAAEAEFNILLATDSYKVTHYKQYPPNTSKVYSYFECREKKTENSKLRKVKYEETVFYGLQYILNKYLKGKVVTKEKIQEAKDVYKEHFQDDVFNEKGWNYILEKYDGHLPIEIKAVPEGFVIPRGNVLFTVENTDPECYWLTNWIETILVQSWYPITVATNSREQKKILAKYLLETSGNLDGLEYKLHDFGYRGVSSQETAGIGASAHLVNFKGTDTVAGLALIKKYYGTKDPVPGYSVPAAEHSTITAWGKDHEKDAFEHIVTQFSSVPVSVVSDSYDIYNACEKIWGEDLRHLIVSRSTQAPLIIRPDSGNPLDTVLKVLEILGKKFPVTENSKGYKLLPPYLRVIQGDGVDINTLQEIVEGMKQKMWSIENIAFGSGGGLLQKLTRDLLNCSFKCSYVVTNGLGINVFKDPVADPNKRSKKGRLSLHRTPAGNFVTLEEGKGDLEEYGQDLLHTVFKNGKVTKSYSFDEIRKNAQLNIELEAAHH

Compound | IC50 (A549 C4.4a B4; [1]) | IC50 (human NAMPT) | further results
O=C(Nc1ccc(-c2cc(-c3cccc4ncccc34)c(=O)[nH]n2)cc1)N1Cc2ccncc2C1 [Example 4, N-{4-[6-Oxo-5-(quinolin-5-yl)-1,6-dihydropyridazin-3-yl]phenyl}-1,3-dihydro-2H-pyrrolo[3,4-c]pyridine-2-carboxamide] | > 300 nM | 1.16 nM and 1.22 nM | IC50 (U251 MG; [2]): 0.146 nM; IC50 (THP-1; Homo sapiens, THP-1, Table 2): 0.0171 nM
N[C@@H](CSC1CC(=O)N(CCCCCC(=O)NCCCCCCn2nc(-c3ccc(NC(=O)N4Cc5ccncc5C4)cc3)cc(-c3cccc4ncccc34)c2=O)C1=O)C(=O)O (stereo partly drawn) [Example 29M, S-{1-[6-({6-[3-{4-[(1,3-Dihydro-2H-pyrrolo[3,4-c]pyridine-2-carbonyl)amino]phenyl}-6-oxo-5-(quinolin-5-yl)pyridazin-1(6H)-yl]hexyl}amino)-6-oxohexyl]-2,5-dioxopyrrolidin-3-yl}-L-cysteine] | – | 0.441 nM and 0.637 nM | –
O=C1NN=C(c2ccc(NC(=O)N3Cc4ccncc4C3)cc2)CC1c1cccc2ncccc12 (stereo not shown) [Example 1, N-{4-[6-Oxo-5-(quinolin-5-yl)-1,4,5,6-tetrahydropyridazin-3-yl]phenyl}-1,3-dihydro-2H-pyrrolo[3,4-c]pyridine-2-carboxamide] | – | 1.06 nM and 1.21 nM and 1.26 nM and 1.39 nM | IC50 (THP-1; Homo sapiens, THP-1, Table 2): < 0.003 nM
NCCCCCCN1N=C(c2ccc(NC(=O)N3Cc4ccncc4C3)cc2)CC(c2cccc3ncccc23)C1=O (stereo not shown) [Example 3, N-{4-[1-(6-Aminohexyl)-6-oxo-5-(quinolin-5-yl)-1,4,5,6-tetrahydropyridazin-3-yl]phenyl}-1,3-dihydro-2H-pyrrolo[3,4-c]pyridine-2-carboxamide] | – | 0.207 nM and 0.214 nM | –
Cc1nnc(C2CC(c3ccc(NC(=O)N4Cc5ccncc5C4)cc3)=NN(CCCCCCN)C2=O)o1 (stereo not shown) [Example 11, N-{4-[1-(6-Aminohexyl)-5-(5-methyl-1,3,4-oxadiazol-2-yl)-6-oxo-1,4,5,6-tetrahydropyridazin-3-yl]phenyl}-1,3-dihydro-2H-pyrrolo[3,4-c]pyridine-2-carboxamide] | > 300 nM | 0.318 nM and 0.379 nM | IC50 (U251 MG; [2]): 2.82 nM; IC50 (THP-1; Homo sapiens, THP-1, Table 2): < 0.003 nM
O=C(Nc1ccc(C2=NNC(=O)C(c3cccc4ncccc34)(C(F)(F)F)C2)cc1)N1Cc2ccncc2C1 (racemic) [Example 14, N-{4-[6-oxo-5-(quinolin-5-yl)-5-(trifluoromethyl)-1,4,5,6-tetrahydropyridazin-3-yl]phenyl}-1,3-dihydro-2H-pyrrolo[3,4-c]pyridine-2-carboxamide] | – | 0.317 nM and 0.387 nM | –
NCCCCCCN1N=C(c2ccc(NC(=O)N3Cc4ccncc4C3)cc2)CC(c2ccc3cccnc3c2)C1=O (stereo not shown) [Example 45, N-{4-[1-(6-Aminohexyl)-6-oxo-5-(quinolin-7-yl)-1,4,5,6-tetrahydropyridazin-3-yl]phenyl}-1,3-dihydro-2H-pyrrolo[3,4-c]pyridine-2-carboxamide hydrogen chloride] | 32 nM | 0.223 nM and 0.241 nM and 0.277 nM and 0.343 nM | IC50 (A549 C4.4a B4; [3]): 49.7 nM
NCCCCN1N=C(c2ccc(NC(=O)N3Cc4ccncc4C3)cc2)CC(c2cccc3ncccc23)C1=O (stereo not shown) [Example 2, N-{4-[1-(4-Aminobutyl)-6-oxo-5-(quinolin-5-yl)-1,4,5,6-tetrahydropyridazin-3-yl]phenyl}-1,3-dihydro-2H-pyrrolo[3,4-c]pyridine-2-carboxamide] | – | 0.35 nM and 0.365 nM | –
NCCCCn1nc(-c2ccc(NC(=O)N3Cc4ccncc4C3)cc2)cc(-c2cccc3ncccc23)c1=O [Example 5, N-{4-[1-(4-Aminobutyl)-6-oxo-5-(quinolin-5-yl)-1,6-dihydropyridazin-3-yl]phenyl}-1,3-dihydro-2H-pyrrolo[3,4-c]pyridine-2-carboxamide] | – | 0.147 nM and 0.176 nM | –
O=C(Nc1ccc(C2=NNC(=O)[C@@](c3cccc4ncccc34)(C(F)(F)F)C2)cc1)N1Cc2ccncc2C1 [Example 12, N-{4-[(5R)-6-oxo-5-(quinolin-5-yl)-5-(trifluoromethyl)-1,4,5,6-tetrahydropyridazin-3-yl]phenyl}-1,3-dihydro-2H-pyrrolo[3,4-c]pyridine-2-carboxamide] | 0.472 nM | 0.539 nM and 0.551 nM | IC50 (U251 MG; [2]): < 0.03 nM; IC50 (THP-1; Homo sapiens, THP-1, Table 2): < 0.003 nM
O=C(Nc1ccc(-c2cc(-c3cccc4[nH]cnc34)c(=O)[nH]n2)cc1)N1Cc2ccncc2C1 [Example 26, N-{4-[5-(1H-Benzimidazol-4-yl)-6-oxo-1,6-dihydropyridazin-3-yl]phenyl}-1,3-dihydro-2H-pyrrolo[3,4-c]pyridine-2-carboxamide] | 111 nM | 0.167 nM and 0.207 nM | IC50 (MDA-MB-453; [4]): < 0.03 nM
N-[2 or 3-{[(2R)-2-amino-2-carboxyethyl]sulfanyl}-3-carboxypropanoyl]glycyl-N-{6-[3-{4-[(1,3-dihydro-2H-pyrrolo[3,4-c]pyridine-2-carbonyl)amino]phenyl}-6-oxo-5-(quinolin-5-yl)-5,6-dihydropyridazin-1(4H)-yl]hexyl}-N^6-(26-oxo-2,5,8,11,14,17,20,23-octaoxahexacosan-26-yl)-L-lysinamide [Example 36M] | – | 1.03 nM and 1.05 nM | IC50 (A549 C4.4a B4; [3]): 299 nM; IC50 (MDA-MB-453; Table 2, 72 h, read-out: MDA-MB-453 72 h IC50): 18 nM
[(32S,39S)-39-carboxy-32-({6-[(5S)-3-{4-[(1,3-dihydro-2H-pyrrolo[3,4-c]pyridine-2-carbonyl)amino]phenyl}-6-oxo-5-(quinolin-5-yl)-5,6-dihydropyridazin-1(4H)-yl]hexyl}carbamoyl)-26,34,37-trioxo-2,5,8,11,14,17,20,23-octaoxa-27,33,36-triazanonatriacontan-39-yl]sulfanediyl [Example 36Db] | – | – | IC50 (A549 C4.4a B4; [5]): 3.13 nM; IC50 (MDA-MB-453; [6]): 7.24 nM
O=C(Nc1ccc(-c2cc(-c3ccc4[nH]ncc4c3)c(=O)n(CC(F)(F)F)n2)cc1)N1Cc2ccncc2C1 [Example 22, N-{4-[5-(1H-indazol-5-yl)-6-oxo-1-(2,2,2-trifluoroethyl)-1,6-dihydropyridazin-3-yl]phenyl}-1,3-dihydro-2H-pyrrolo[3,4-c]pyridine-2-carboxamide] | 4.88 nM | 0.111 nM and 0.144 nM | IC50 (MDA-MB-453; [4]): < 0.03 nM
2 or 3-{[(2R)-2-Amino-2-carboxyethyl]sulfanyl}-4-{[2-({6-[3-{4-[(1,3-dihydro-2H-pyrrolo[3,4-c]pyridine-2-carbonyl)amino]phenyl}-6-oxo-5-(quinolin-5-yl)pyridazin-1(6H)-yl]hexyl}amino)-2-oxoethyl]amino}-4-oxobutanoic Acid [Example 31M] | – | 0.26 nM and 0.311 nM | –
NCCCCCCN1N=C(c2ccc(NC(=O)N3Cc4ccncc4C3)cc2)CC(c2cccc3ncccc23)(C(F)(F)F)C1=O (stereo not shown) [Example 15, N-{4-[1-(6-Aminohexyl)-6-oxo-5-(quinolin-5-yl)-5-(trifluoromethyl)-1,4,5,6-tetrahydropyridazin-3-yl]phenyl}-1,3-dihydro-2H-pyrrolo[3,4-c]pyridine-2-carboxamide] | – | 0.309 nM and 0.363 nM | IC50 (MDA-MB-453; [4]): < 0.03 nM
2 or 3-{[(2R)-2-Amino-2-carboxyethyl]sulfanyl}-4-{[2-({6-[3-{4-[(1,3-dihydro-2H-pyrrolo[3,4-c]pyridine-2-carbonyl)amino]phenyl}-6-oxo-5-(quinolin-5-yl)-5,6-dihydropyridazin-1(4H)-yl]hexyl}amino)-2-oxoethyl]amino}-4-oxobutanoic Acid [Example 30M] | – | – | IC50 (A549 C4.4a B4; [5]): > 300 nM; IC50 (MDA-MB-453; [6]): 9.96 nM; IC50 (U251 MG; Table 3 (ADCs), 72 h, read-out: U-251 72 h IC^50): > 300 nM; IC50 (THP-1; Table 3 (ADCs), read-out: THP-1 72 h IC^50): 81.1 nM
